Assay results published in ChEMBL document CHEMBL3044599, “Structure-activity relationship of citrus polymethoxylated flavones and their inhibitory effects on Aspergillus niger” (J Agric Food Chem, 2012).
Calls of active or inactive are those of the source. The rule behind the calls is not given here.

tested on: Aspergillus niger; experiment: Antifungal activity against Aspergillus niger CICC 2273 assessed as inhibition of mycelial growth by microbroth dilution method; type: functional, organism-based

Row | SMILES | inhibition
1 | COc1ccc(-c2oc3c(OC)c(OC)c(OC)c(OC)c3c(=O)c2O)cc1OC | inactive
2 | COc1ccc(-c2cc(=O)c3c(O)c(OC)c(OC)c(OC)c3o2)cc1OC | Active
3 | COc1ccc(-c2oc3cc(OC)c(OC)c(OC)c3c(=O)c2OC)cc1OC | Active
4 | COc1ccc(-c2cc(=O)c3c(OC)c(OC)c(OC)c(OC)c3o2)cc1OC | Active
5 | COc1ccc(-c2cc(=O)c3c(OC)c(OC)c(OC)cc3o2)cc1 | Active
6 | CC(=O)C[C@H]1O[C@@H](Oc2ccc3c(=O)cc(-c4ccccc4)oc3c2)[C@H](O)[C@@H](O)[C@@H]1O | inactive
